Data as given in ChEMBL document CHEMBL4190241, “Isolation of Premyrsinane, Myrsinane, and Tigliane Diterpenoids from Euphorbia pithyusa Using a Chikungunya Virus Cell-Based Assay and Analogue Annotation by Molecular Networking” (J Nat Prod, 2017).

Legend:
[1] = Selectivity index, ratio of CC50 for African green monkey Vero A cells to EC50 for Chikungunya virus Indian ocean strain 899 infected in African green monkey Vero A cells; type: toxicity; details: read-out: Ratio CC50/EC50
Chikungunya virus = assay: Antiviral activity against Chikungunya virus Indian ocean strain 899 infected in African green monkey Vero A cells assessed as reduction in viral-induced cytopathic effect after 6 to 7 days by MTS/PMS assay; type: functional, organism-based; details: Indian ocean 899, Vero
[2] = Cytotoxicity against African green monkey Vero A cells assessed as reduction in cell viability after 6 to 7 days by MTS assay; type: cell-based; details: chlorocebus sabaeus

## C=C(C)C1C=C[C@@H](OC(C)=O)[C@@]23CO[C@@](C)([C@H](OC(=O)c4ccccc4)[C@@]4(O)C[C@H](C)[C@H](OC(=O)CC)[C@@H]4[C@H]2OC(C)=O)[C@H]13 (stereo partly specified)
[1]
  selectivity ratio: 1.9
Chikungunya virus
  EC50: 84 µM
[2]
  CC50: 158 µM

## CC(=O)OC[C@]12[C@H](OC(=O)c3ccccc3)[C@H]3[C@@H](OC(C)=O)[C@@H](C)C[C@]3(O)C(=O)[C@@](C)(OC(C)=O)[C@@H]1[C@@H]1[C@H](C[C@H]2OC(C)=O)C1(C)C
[1]
  selectivity ratio: 2.2
Chikungunya virus
  EC50: 78 µM
[2]
  CC50: 171 µM

## CC(=O)OCC1=C[C@H]2[C@@H]3C(C)(C)[C@]3(OC(=O)C(C)C(C)C)C[C@@H](C)[C@]2(O)[C@@H]2C=C(C)C(=O)[C@H]2C1 (stereo partly specified)
[1]
  selectivity ratio: 10.6
Chikungunya virus
  EC50: 4 µM
[2]
  CC50: 42.7 µM

## CCC(=O)O[C@@H]1[C@@H]2[C@@H](OC(=O)c3ccccc3)[C@]3(COC(C)=O)[C@H](O)C[C@H]4[C@@H]([C@H]3[C@](C)(O)C(=O)[C@@]2(OC(C)=O)C[C@@H]1C)C4(C)C
[1]
  selectivity ratio: 5.8
Chikungunya virus
  EC50: 11 µM
[2]
  CC50: 63.5 µM

## CCC(=O)O[C@@H]1[C@@H]2[C@@H](OC(=O)c3ccccc3)[C@@]3(COC(C)=O)[C@@H]([C@@H]4[C@H](C[C@H]3OC(C)=O)C4(C)C)[C@](C)(CC(C)=O)C(=O)[C@@]2(O)C[C@@H]1C
Chikungunya virus
  EC50: > 144 µM

## CCC(=O)O[C@@H]1[C@@H]2[C@@H](OC(=O)c3ccccc3)[C@@]3(COC(C)=O)[C@@H]([C@@H]4[C@H](C[C@H]3OC(C)=O)C4(C)C)[C@](C)(OC(=O)c3cccnc3)C(=O)[C@@]2(O)C[C@@H]1C
[1]
  selectivity ratio: < 2.4
Chikungunya virus
  EC50: > 107 µM
[2]
  CC50: > 159 µM

## CCC(=O)O[C@@H]1[C@@H]2[C@@H](OC(=O)C(C)CC)[C@@]3(COC(C)=O)[C@@H]([C@@H]4[C@H](C[C@H]3OC(C)=O)C4(C)C)[C@](C)(OC(C)=O)C(=O)[C@@]2(O)C[C@@H]1C (stereo partly specified)
[1]
  selectivity ratio: 2.2
Chikungunya virus
  EC50: 107 µM
[2]
  CC50: 153 µM

## CC(=O)OC[C@]12[C@H](OC(=O)c3ccccc3)[C@H]3[C@@H](OC(C)=O)[C@@H](C)C[C@]3(OC(C)=O)C(=O)[C@@](C)(O)[C@@H]1[C@@H]1[C@H](C[C@H]2OC(C)=O)C1(C)C
Chikungunya virus
  EC50: > 152 µM

## CCC(C)C(=O)O[C@@H]1[C@H]2[C@@H](OC(C)=O)[C@@H](C)C[C@]2(O)C(=O)[C@@](C)(OC(C)=O)[C@@H]2[C@@H]3[C@H](C[C@@H](OC(C)=O)[C@@]12COC(C)=O)C3(C)C (stereo partly specified)
[1]
  selectivity ratio: < 5
Chikungunya virus
  EC50: > 50 µM
[2]
  CC50: > 157 µM

## CC(=O)OCC1=C[C@H]2[C@@H]3C(C)(C)[C@]3(OC(=O)C(C)C(C)C)C[C@@H](C)[C@]2(O)[C@@H]2C=C(C)C(=O)[C@@H]2C1 (stereo partly specified)
Chikungunya virus
  EC50: > 11 µM

## CCN(CC)CCCC(C)Nc1ccnc2cc(Cl)ccc12 (stereo unspecified) [CHLOROQUINE]
Chikungunya virus
  EC50: 11 µM
[2]
  CC50: 89 µM
